Assay results: US20250197394A1, “ANTIBACTERIALS BASED ON MONOCYCLIC FRAGMENTS COUPLED TO AMINOPIPERIDINE NAPHTHYRIDINE SCAFFOLD” (UNIVERZA V LJUBLJANI, priority 2019, published 2025)
Values after ≈ are worked out from the molar mass of the structure shown.

What was measured:
[1] = molecular target: Staphylococcus aureus DNA gyrase (Staphylococcus aureus, UniProt P0A0K8+P20831); experiment: biochemical
HUVEC (ATCC) cell line = experiment: Cytotoxicity, metabolic cell activity (CellTiter 96 AQueous One), HUVEC; type: cell-based; conditions: two independent experiments; for mean percentage of metabolic activity of treated cells, HUVEC 1 μM: compound 1 μM; for mean percentage of metabolic activity of treated cells, HUVEC 50 μM: compound 50 μM
Description: (§1) Cytotoxicity was assessed in assay measuring metabolic cell activity performed on HepG2 (ATCC) and HUVEC (ATCC) cell lines according to the protocol of CellTiter 96® AQueous One Solution Cell Proliferation Assay 2018, Promega, USA, 2001. The method involved absorbance measurements after the treatment of cells with compounds at concentrations 1 μM and 50 μM.
(§2) The results are given as the mean percentage of metabolic activity of treated cells from two independent experiments and are represented in Table 3.

HepG2 (ATCC) cell line = experiment: Cytotoxicity, metabolic cell activity (CellTiter 96 AQueous One), HepG2; type: cell-based; conditions: two independent experiments; for mean percentage of metabolic activity of treated cells, HepG2 1 μM: HepG2, compound 1 μM; for mean percentage of metabolic activity of treated cells, HepG2 50 μM: HepG2, compound 50 μM
Description: as §1, §2

E. faecalis DRK 057 = experiment: MIC broth microdilution, E. faecalis; type: cell-based; conditions: Enterococcus faecalis, DRK057, 20 hours of incubation
Description: (§3) Minimal inhibitory concentrations were determined by the broth microdilution method in 96-wells plate format following the Clinical and Laboratory Standards Institute (CLSI) guidelines given in “Methods for Dilution Antimicrobial Susceptibility Tests for Bacteria That Grow Aerobically, Approved Standard, 10th Edition, CLSI document M07-A10, Wayne, PA: Clinical and Laboratory Standards Institute, USA, 2015” and European Committee on Antimicrobial Susceptibility Testing (EUCAST) recommendations given in “The European Committee on Antimicrobial Susceptibility Testing, Breakpoint tables for interpretation of MICs and zone diameters, Version 5.0, 2015”. All exemplified compounds were tested on several Gram-positive (S. aureus, methicillin-resistant Staphylococcus aureus (MRSA), methicillin-resistant
(§4) Staphylococcus schleiferi subspecies coagulans, methicillin-resistant Staphylococcus pseudintermedius
(§5) (S-48, S-84, S-35, S-52, S-40 and S-51), Streptococcus agalactiae and Enterococcus faecalis) and Gram-negative bacteria (E. coli, Salmonella Alachua and Pseudomonas aeruginosa).
(§6) The MICs were visually determined as the lowest compound concentration inhibiting bacterial growth after 20 hours of incubation time. […] MIC values are represented in Table 2.

[2] = tested on: methicillin-resistant Staphylococcus pseudintermedius S-35; experiment: MIC broth microdilution, MRSP S-35; type: cell-based; conditions: 20 hours of incubation
Description: as §3, §4, §5, §6

[3] = tested on: methicillin-resistant Staphylococcus pseudintermedius S-51; experiment: MIC broth microdilution, MRSP S-51; type: cell-based; conditions: 20 hours of incubation
Description: as §3, §4, §5, §6

[4] = tested on: methicillin-resistant Staphylococcus pseudintermedius S-40; experiment: MIC broth microdilution, MRSP S-40; type: cell-based; conditions: 20 hours of incubation
Description: as §3, §4, §5, §6

P. aeruginosa RDK 184 = experiment: MIC broth microdilution, P. aeruginosa; type: cell-based; conditions: Pseudomonas aeruginosa, RDK184, 20 hours of incubation
Description: as §3, §4, §5, §6

[5] = tested on: methicillin-resistant Staphylococcus pseudintermedius S-48; experiment: MIC broth microdilution, MRSP S-48; type: cell-based; conditions: 20 hours of incubation
Description: as §3, §4, §5, §6

[6] = tested on: methicillin-resistant Staphylococcus pseudintermedius S-52; experiment: MIC broth microdilution, MRSP S-52; type: cell-based; conditions: 20 hours of incubation
Description: as §3, §4, §5, §6

[7] = tested on: methicillin-resistant Staphylococcus pseudintermedius S-84; experiment: MIC broth microdilution, MRSP S-84; type: cell-based; conditions: 20 hours of incubation
Description: as §3, §4, §5, §6

[8] = tested on: methicillin-resistant Staphylococcus schleiferi subspecies coagulans; experiment: MIC broth microdilution, MRSS; type: cell-based; conditions: 20 hours of incubation
Description: as §3, §4, §5, §6

C. jejuni RDK-135 = experiment: MIC broth microdilution, C. jejuni; type: cell-based; conditions: Campylobacter jejuni, RDK135, 20 hours of incubation
Description: as §3, §6

[9] = molecular target: T1, Escherichia coli DNA gyrase (Escherichia coli, UniProt P0AES4+P0AES6); experiment: Gyrase Supercoiling High Throughput Plate assay (E. coli); type: biochemical; conditions: mean of two to four independent measurements
T1 construct: purchased Inspiralis (Norwich, UK)

[10] = tested on: methicillin-resistant Staphylococcus aureus (MRSA); experiment: MIC broth microdilution, MRSA; type: cell-based; conditions: 20 hours of incubation
Description: as §3, §4, §5, §6

T1 sequence (P0AES4 whole entry, one chain of several): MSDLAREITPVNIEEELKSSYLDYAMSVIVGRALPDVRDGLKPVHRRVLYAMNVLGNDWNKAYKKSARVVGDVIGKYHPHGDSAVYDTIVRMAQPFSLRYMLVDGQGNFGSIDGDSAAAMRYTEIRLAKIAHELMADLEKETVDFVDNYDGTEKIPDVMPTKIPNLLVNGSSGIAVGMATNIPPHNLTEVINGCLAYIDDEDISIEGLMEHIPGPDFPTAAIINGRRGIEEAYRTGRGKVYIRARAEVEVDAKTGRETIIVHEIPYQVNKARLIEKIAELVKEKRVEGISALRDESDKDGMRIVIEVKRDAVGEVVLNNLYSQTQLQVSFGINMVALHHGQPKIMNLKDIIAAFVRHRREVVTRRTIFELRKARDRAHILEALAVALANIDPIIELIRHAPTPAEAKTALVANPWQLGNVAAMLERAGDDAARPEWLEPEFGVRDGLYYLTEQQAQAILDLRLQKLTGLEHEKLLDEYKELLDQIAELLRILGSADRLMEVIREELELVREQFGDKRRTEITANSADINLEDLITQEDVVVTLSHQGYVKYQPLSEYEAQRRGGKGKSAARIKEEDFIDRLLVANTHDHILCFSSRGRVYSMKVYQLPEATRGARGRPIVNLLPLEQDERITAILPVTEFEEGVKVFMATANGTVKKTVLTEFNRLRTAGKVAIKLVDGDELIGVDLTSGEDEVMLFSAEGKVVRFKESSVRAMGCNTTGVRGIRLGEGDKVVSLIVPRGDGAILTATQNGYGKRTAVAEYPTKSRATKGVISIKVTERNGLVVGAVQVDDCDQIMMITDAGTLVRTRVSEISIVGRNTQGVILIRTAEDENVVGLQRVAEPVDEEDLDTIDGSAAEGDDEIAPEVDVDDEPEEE
Chain of Staphylococcus aureus DNA gyrase (P20831 whole entry): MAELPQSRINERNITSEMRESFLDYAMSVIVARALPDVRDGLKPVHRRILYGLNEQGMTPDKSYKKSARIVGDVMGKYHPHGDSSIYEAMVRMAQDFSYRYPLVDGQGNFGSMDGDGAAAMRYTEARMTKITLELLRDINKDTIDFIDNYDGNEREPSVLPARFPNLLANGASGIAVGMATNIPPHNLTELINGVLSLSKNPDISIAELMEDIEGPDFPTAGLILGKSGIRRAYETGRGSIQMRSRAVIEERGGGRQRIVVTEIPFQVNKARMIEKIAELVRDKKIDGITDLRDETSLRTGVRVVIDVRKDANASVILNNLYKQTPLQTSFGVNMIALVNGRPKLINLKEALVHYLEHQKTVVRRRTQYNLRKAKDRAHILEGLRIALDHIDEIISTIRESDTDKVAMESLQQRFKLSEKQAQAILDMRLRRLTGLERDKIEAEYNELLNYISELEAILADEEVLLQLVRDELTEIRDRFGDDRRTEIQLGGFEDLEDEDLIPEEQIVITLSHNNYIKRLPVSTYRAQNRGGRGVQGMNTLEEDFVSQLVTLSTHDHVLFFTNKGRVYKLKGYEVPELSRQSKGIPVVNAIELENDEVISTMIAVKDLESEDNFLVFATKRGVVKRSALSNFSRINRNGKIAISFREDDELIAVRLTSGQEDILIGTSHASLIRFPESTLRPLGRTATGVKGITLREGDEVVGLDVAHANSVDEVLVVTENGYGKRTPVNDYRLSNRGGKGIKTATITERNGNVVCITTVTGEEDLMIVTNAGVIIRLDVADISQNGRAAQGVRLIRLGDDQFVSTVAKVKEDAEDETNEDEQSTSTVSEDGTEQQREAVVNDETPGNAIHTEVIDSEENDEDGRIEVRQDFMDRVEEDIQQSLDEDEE
Chain of Staphylococcus aureus DNA gyrase (P0A0K8 whole entry): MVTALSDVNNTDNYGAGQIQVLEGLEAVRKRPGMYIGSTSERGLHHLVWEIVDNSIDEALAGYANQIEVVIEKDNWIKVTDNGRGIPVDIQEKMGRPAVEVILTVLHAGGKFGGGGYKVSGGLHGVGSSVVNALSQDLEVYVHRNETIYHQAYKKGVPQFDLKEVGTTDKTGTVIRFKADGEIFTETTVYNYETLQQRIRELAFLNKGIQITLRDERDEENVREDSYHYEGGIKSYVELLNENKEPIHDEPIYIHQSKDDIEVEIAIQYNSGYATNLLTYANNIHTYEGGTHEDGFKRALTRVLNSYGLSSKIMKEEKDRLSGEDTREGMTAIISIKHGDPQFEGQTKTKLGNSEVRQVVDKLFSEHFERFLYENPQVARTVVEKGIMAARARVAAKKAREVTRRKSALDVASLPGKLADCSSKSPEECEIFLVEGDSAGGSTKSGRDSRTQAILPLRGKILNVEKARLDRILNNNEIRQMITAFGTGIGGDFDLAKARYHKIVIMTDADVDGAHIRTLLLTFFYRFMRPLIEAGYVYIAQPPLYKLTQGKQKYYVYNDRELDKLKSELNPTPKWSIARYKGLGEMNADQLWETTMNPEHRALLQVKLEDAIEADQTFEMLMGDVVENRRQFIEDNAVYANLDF

Structure (SMILES) | IC50 [1] | mean percentage of metabolic activity of treated cells, HUVEC 1 μM (HUVEC (ATCC) cell line) | mean percentage of metabolic activity of treated cells, HUVEC 50 μM (HUVEC (ATCC) cell line) | mean percentage of metabolic activity of treated cells, HepG2 1 μM (HepG2 (ATCC) cell line) | mean percentage of metabolic activity of treated cells, HepG2 50 μM (HepG2 (ATCC) cell line) | MIC (E. faecalis DRK 057) | MIC [2] | MIC [3] | MIC [4] | MIC (P. aeruginosa RDK 184) | MIC [5] | MIC [6] | MIC [7] | MIC [8] | MIC (C. jejuni RDK-135) | IC50 [9] | MIC [10]
COc1ccc2nccc(CCN3CCC(NCc4ccccc4)CC3)c2n1 [Compound C1, N-benzyl-1-(2-(6-methoxy-1,5-naphthyridin-4-yl)ethyl)piperidin-4-amine] | 1.02 µM | 92.9 ± 16.6% | 63.4 ± 11.3% | 107.1 ± 7.2% | 1.4 ± 0.3% | 16 µg/mL (≈ 42.5 µM) | 4 µg/mL (≈ 10.6 µM) | 4 µg/mL (≈ 10.6 µM) | 4 µg/mL (≈ 10.6 µM) | > 128 µg/mL | 4 µg/mL (≈ 10.6 µM) | 16 µg/mL (≈ 42.5 µM) | 4 µg/mL (≈ 10.6 µM) | 0.25 µg/mL (≈ 0.664 µM) | 32 µg/mL (≈ 85 µM) | 40.6 µM | –
COc1ccc2nccc(CCN3CCC(NCc4ccc(CO)cc4)CC3)c2n1 [Compound C2, (4-((1-(2-(6-methoxy-1,5-naphthyridin-4-yl)ethyl)piperidin-4-ylamino)methyl)phenyl)methanol] | 4.39 µM | 97.7 ± 9.4% | 63.1 ± 2.1% | 100.2 ± 1.5% | 24.1 ± 0.9% | 8 µg/mL (≈ 19.7 µM) | 4 µg/mL (≈ 9.84 µM) | 4 µg/mL (≈ 9.84 µM) | 4 µg/mL (≈ 9.84 µM) | > 128 µg/mL | 4 µg/mL (≈ 9.84 µM) | 8 µg/mL (≈ 19.7 µM) | 4 µg/mL (≈ 9.84 µM) | 0.25 µg/mL (≈ 0.615 µM) | 32 µg/mL (≈ 78.7 µM) | 56.6 µM | –
COc1ccc2nccc(CCN3CCC(NCc4ccc(C(N)=O)cc4)CC3)c2n1 [Compound C3, 4-((1-(2-(6-methoxy-1,5-naphthyridin-4-yl)ethyl)piperidin-4-ylamino)methyl) benzamide] | 1.82 µM | 105.8 ± 3.5% | 66.1 ± 3.5% | 94.0 ± 0.8% | 48.3 ± 1.0% | 128 µg/mL (≈ 305 µM) | 4 µg/mL (≈ 9.53 µM) | 4 µg/mL (≈ 9.53 µM) | 4 µg/mL (≈ 9.53 µM) | > 128 µg/mL | 4 µg/mL (≈ 9.53 µM) | 8 µg/mL (≈ 19.1 µM) | 4 µg/mL (≈ 9.53 µM) | 0.25 µg/mL (≈ 0.596 µM) | 128 µg/mL (≈ 305 µM) | > 100 µM | –
COc1ccc2nccc(CCN3CCC(NCc4ccc(N(C)C)cc4)CC3)c2n1 [Compound C4, N-(4-(dimethylamino)benzyl)-1-(2-(6-methoxy-1,5-naphthyridin-4-yl)ethyl)piperidin-4-amine] | 0.067 µM | 105.9 ± 0.9% | 0.1 ± 0.6% | 102.5 ± 2.3% | 0.8 ± 1.0% | 1 µg/mL (≈ 2.38 µM) | 0.25 µg/mL (≈ 0.596 µM) | 0.25 µg/mL (≈ 0.596 µM) | 0.125 µg/mL (≈ 0.298 µM) | > 128 µg/mL | 0.25 µg/mL (≈ 0.596 µM) | 0.5 µg/mL (≈ 1.19 µM) | 0.125 µg/mL (≈ 0.298 µM) | 0.015 µg/mL (≈ 0.0358 µM) | 4 µg/mL (≈ 9.53 µM) | 11.9 µM | 0.025 µg/mL (≈ 0.0596 µM)
COc1ccc2nccc(CCN3CCC(NCc4ccc(F)cc4)CC3)c2n1 [Compound C5, N-(4-fluorobenzyl)-1-(2-(6-methoxy-1,5-naphthyridin-4-yl)ethyl)piperidin-4-amine] | 0.55 µM | 105.2 ± 15.1% | 75.6 ± 12.0% | 98.0 ± 3.9% | −1.3 ± 2.2% | 8 µg/mL (≈ 20.3 µM) | 2 µg/mL (≈ 5.07 µM) | 2 µg/mL (≈ 5.07 µM) | 2 µg/mL (≈ 5.07 µM) | > 128 µg/mL | 2 µg/mL (≈ 5.07 µM) | 8 µg/mL (≈ 20.3 µM) | 2 µg/mL (≈ 5.07 µM) | 0.125 µg/mL (≈ 0.317 µM) | 1 µg/mL (≈ 2.53 µM) | 17 µM | –
